# According to patent publication US7294642B2, “1,3-Diamino-2-hydroxypropane pro-drug derivatives” (Elan Pharmaceuticals, Inc., priority 2002, dated 2007):
# Assay: Acyl group migration (rearrangement) of pro-drug in DMSO-d6/buffer solution monitored by 19F-NMR
# Type: physicochemical
# Procedure: A compound of formula (I) OR (X) (5 mg) is dissolved in DMSO-d6 (500 μL) and either pH 4 buffer solution (500 μL, potassium hydrogen phthalate buffer) or pH 7 buffer solution (500 μL, sodium and potassium phosphate buffer) is added. The sample is then heated to 40° C. The O-acyl or N-acyl to N-terminal N-acyl migration is monitored by observing the change in chemical shift for the aromatic fluorines using ^19F-NMR. (Fluorine shifts associated with the desired migration were confirmed by spiking with authentic analogue). The sample is analyzed by ^19F-NMR at approxiamately 0, 1.5, 3, 24, 48, and 144 hours. The amount of O-acyl pro-drug, N-acyl pro-drug, and desired migration product at each time point are assigned by integrating the corresponding NMR signal.
# N˜1˜-[(2R,3S)-3-amino-4-(3,5-difluorophenyl)-2-hydroxybutyl]-5-(1,3-oxazol-2-yl)-N˜3˜,N˜3˜-dipropyl-N˜1˜-[3-(trifluoromethyl)benzyl]isophthalamide hydrochloride (PREPARATION 7, 5 mg) is dissolved in DMSO-d6 (500 μL) and pH 4 buffer solution (500 μL, potassium hydrogen phthalate buffer) is added. The sample is then heated to 40° C. The N-acyl to N-terminal N-acyl migration is monitored by observing the change in chemical shift for the aromatic fluorines using ^19F-NMR. (Fluorine shifts for the desired migration product in the presence of buffer was confirmed by spiking with authentic migration product, N^1-((1S,2R)-1-(3,5-difluorobenzyl)-2-hydroxy-3-{[3-(trifluoromethyl)benzyl]amino}propyl)-5-(1,3-oxazol-2-yl)-N^3,N^3-dipropylisophthalamide.) NMR data is collected at 0, 1, 3, 25, 48, 96, and 144 hours. The amount of N-acyl pro-drug and desired migration product present at each time point is assigned by integrating the corresponding NMR signal.
# The following examples illustrate the solution acyl group migration of compounds of the formulae (I) and (X) as observed by ^19F NMR spectroscopy. Data were collected as described in Example 1, above.
Structure (SMILES),"HEA product (% present) (pH 4, 40° C., time 0 hr) [%]","N-acyl prodrug (% present) (pH 4, 40° C., time 0 hr) [%]","O-acyl pro-drug (% present) (pH 4, 40° C., time 0 hr) [%]","HEA product (% present) (pH 4, 40° C., time 1.5 hr) [%]","N-acyl prodrug (% present) (pH 4, 40° C., time 1.5 hr) [%]","O-acyl pro-drug (% present) (pH 4, 40° C., time 1.5 hr) [%]","HEA product (% present) (pH 4, 40° C., time 3 hr) [%]","N-acyl prodrug (% present) (pH 4, 40° C., time 3 hr) [%]","O-acyl pro-drug (% present) (pH 4, 40° C., time 3 hr) [%]","HEA product (% present) (pH 4, 40° C., time 24 hr) [%]","HEA product (% present) (pH 7, 40° C., time 0 hr) [%]","N-acyl prodrug (% present) (pH 7, 40° C., time 0 hr) [%]","O-acyl pro-drug (% present) (pH 7, 40° C., time 0 hr) [%]","HEA product (% present) (pH 7, 40° C., time 1.5 hr) [%]","N-acyl prodrug (% present) (pH 7, 40° C., time 1.5 hr) [%]","O-acyl pro-drug (% present) (pH 7, 40° C., time 1.5 hr) [%]","N-acyl prodrug (% present) (pH 7, 40° C., time 7 hr) [%]","N-acyl prodrug (% present) (pH 7, 40° C., time 24 hr) [%]","N-acyl prodrug (% present) (pH 7, 40° C., time 48 hr) [%]","N-acyl prodrug (% present) (pH 7, 40° C., time 144 hr) [%]",further results
"CCCN(CCC)C(=O)c1cc(C(=O)N(Cc2cccc(C(F)(F)F)c2)C[C@@H](O)[C@@H](N)Cc2cc(F)cc(F)c2)cc(-c2ncco2)c1.Cl [N˜1˜-[(2R,3S)-3-amino-4-(3,5-difluorophenyl)-2-hydroxybutyl]-5-(1,3-oxazol-2-yl)-N˜3˜,N˜3˜-dipropyl-N˜1˜-[3-(trifluoromethyl)benzyl]isophthalamide hydrochloride]",,,,,,,,,,,,,,,,,,,,,"migration of N-acyl pro-drug to O-acyl pro-drug (pH 4 buffer/DMSO-d6, 40° C., 0 to 144 hours, 19F-NMR): No migration to O-acyl pro-drug was observed"
"CCCN(CCC)C(=O)c1cc(C(=O)O[C@H](CNCc2cccc(CC)c2)[C@@H](N)Cc2cc(F)cc(F)c2)cc(-c2ncco2)c1.Cl.Cl [Preparation 16, (1R,2S)-2-amino-3-(3,5-difluorophenyl)-1-{[(3-ethylbenzyl)amino]methyl}propyl 3-[(dispropylamino)carbonyl]-5-(1,3-oxazol-2-yl)benzoate dihydrochloride]",0,0,100,54,13,33,76,15,9,88,0,0,100,48,52,0,46,38,29,15,"N-acyl prodrug (% present) (pH 4, 40° C., time 24 hr): 12%; O-acyl pro-drug (% present) (pH 4, 40° C., time 24 hr): 0%; HEA product (% present) (pH 4, 40° C., time 48 hr): 88%; N-acyl prodrug (% present) (pH 4, 40° C., time 48 hr): 12%; O-acyl pro-drug (% present) (pH 4, 40° C., time 48 hr): 0%; HEA product (% present) (pH 4, 40° C., time 144 hr): 91%; N-acyl prodrug (% present) (pH 4, 40° C., time 144 hr): 9%; O-acyl pro-drug (% present) (pH 4, 40° C., time 144 hr): 0%; HEA product (% present) (pH 7, 40° C., time 7 hr): 54%; O-acyl pro-drug (% present) (pH 7, 40° C., time 7 hr): 0%; HEA product (% present) (pH 7, 40° C., time 24 hr): 62%; O-acyl pro-drug (% present) (pH 7, 40° C., time 24 hr): 0%; HEA product (% present) (pH 7, 40° C., time 48 hr): 71%; O-acyl pro-drug (% present) (pH 7, 40° C., time 48 hr): 0%; HEA product (% present) (pH 7, 40° C., time 144 hr): 85%; O-acyl pro-drug (% present) (pH 7, 40° C., time 144 hr): 0%"
"CCCN(CCC)C(=O)c1cc(C(=O)O[C@H](CNC2(c3cccc(CC)c3)CC2)[C@@H](N)Cc2cc(F)cc(F)c2)cc(-c2ncco2)c1.Cl.Cl [Preparation 17, (1R,2S)-2-amino-3-(3,5-difluorophenyl)-1-({[1-(3-ethylphenyl)cyclopropyl]amino}methyl)propyl 3-[(dipropylamino)carbonyl]-5-(1,3-oxazol-2-yl)benzoate dihydrochloride]",0,0,100,47,0,53,67,0,33,100,0,0,100,97,0,3,0,0,0,0,"HEA product (% present) (pH 4, 40° C., time 6 hr): 89%; N-acyl prodrug (% present) (pH 4, 40° C., time 6 hr): 0%; O-acyl pro-drug (% present) (pH 4, 40° C., time 6 hr): 11%; N-acyl prodrug (% present) (pH 4, 40° C., time 24 hr): 0%; O-acyl pro-drug (% present) (pH 4, 40° C., time 24 hr): 0%"
"CCCN(CCC)C(=O)c1cc(C(=O)O[C@H](CNCc2cccc(C(F)(F)F)c2)[C@@H](N)Cc2cc(F)cc(F)c2)cc(-c2ncco2)c1.Cl.Cl [Preparation 18, (1R,2S)-2-amino-3-(3,5-uorophenyl)-1-({[3-(trifluoromethyl)benzyl]amino}methyl)propyl 3-[(dipropylamino)carbonyl]-5-(1,3-oxazol-2-yl)benzoate dihydrochloride]",0,0,100,54,14,32,74,18,8,,0,0,100,34,66,0,59,43,27,16,"HEA product (% present) (pH 4, 40° C., time 30 hr): 79%; N-acyl prodrug (% present) (pH 4, 40° C., time 30 hr): 21%; O-acyl pro-drug (% present) (pH 4, 40° C., time 30 hr): 0%; HEA product (% present) (pH 4, 40° C., time 54 hr): 80%; N-acyl prodrug (% present) (pH 4, 40° C., time 54 hr): 20%; O-acyl pro-drug (% present) (pH 4, 40° C., time 54 hr): 0%; HEA product (% present) (pH 4, 40° C., time 126 hr): 86%; N-acyl prodrug (% present) (pH 4, 40° C., time 126 hr): 14%; O-acyl pro-drug (% present) (pH 4, 40° C., time 126 hr): 0%; HEA product (% present) (pH 7, 40° C., time 7 hr): 41%; O-acyl pro-drug (% present) (pH 7, 40° C., time 7 hr): 0%; HEA product (% present) (pH 7, 40° C., time 24 hr): 57%; O-acyl pro-drug (% present) (pH 7, 40° C., time 24 hr): 0%; HEA product (% present) (pH 7, 40° C., time 48 hr): 73%; O-acyl pro-drug (% present) (pH 7, 40° C., time 48 hr): 0%; HEA product (% present) (pH 7, 40° C., time 144 hr): 84%; O-acyl pro-drug (% present) (pH 7, 40° C., time 144 hr): 0%"
